Data: patent US20220152090A1, “METHOD FOR TREATING AMYLOIDOGENIC DISEASE” (priority 2020, published 2022)

Key:
SH-SY5Y cells = assay: Cell viability (CCK8) of Aβ42-treated neuronal cells; assay type: cell-based
Protocol: The general procedures used for preparing the transient LPS-Aβ42 complex and the validation of cell cytotoxicity were as follows. First, Aβ42 (100 μM) and LPS (1000 nM, derived from Escherichia coli O111:B4, Sigma-Aldrich) were added to each group medium containing 2.5% dimethyl sulfoxide (DMSO) and then sterilized by using UV light. The medium was then replaced and the remaining mixture was incubated for 72 hours at 37° C. in 5% CO2 humidified air. Cell viability was measured using the CCK8 (Sigma-Aldrich 96992) assay according to the manufacturer's protocol. A 0.22-μm filter (non-pyogenic, Millex®-GV) was used to remove unbound LPS, if needed, in the LPS-Aβ42 solution.
Cell viability. Neural cells were maintained in MEM (Gibco 11095-080) supplemented with 10% FBS and 1×MEM NEAA (Gibco 11140-050). Neural SH-SY5Y cells were plated at a density of 8000 cells per well in 96-well plates (Costar 3599) and allowed to attach overnight at 37° C. in 5% CO2 humidified air. Aβ42 (100 μM), LPS (1000 nM), SAuM (1000 nM), or colistin (1000 nM) were then added to each group medium containing 2.5% dimethyl sulfoxide (DMSO) and sterilized by using UV light. The medium was then replaced every day and the remaining mixture was incubated for 72 hours at 37° C. in 5% CO2 humidified air. Cell viability was measured using the CCK8 (Sigma-Aldrich 96992) assay according to the manufacturer's protocol. A 0.22-μm filter (non-pyogenic, Millex®-GV) was used to remove unbound LPS, if needed, in the LPS-Aβ42 solution.

Aβ42 = biological target: T1, Aβ42 (Homo sapiens, UniProt P05067); assay: Western blot of Aβ42 degradation in SH-SY5Y cells; assay type: cell-based; conditions: for LPS-induced degradation of Aβ42 in the presence of inhibitor: SH-SY5Y; for Aβ42 degradation in SH-SY5Y cells co-treated with the agent: Western blotting, FIG. 13
T1 construct: Aβ42 peptides were collected from the entire volume of the cell culture medium and total cell lysates; host or cells: Peptide added to the medium of SH-SY5Y cells; not made by the cells
T1 sequence (P05067 672-713 limits assumed): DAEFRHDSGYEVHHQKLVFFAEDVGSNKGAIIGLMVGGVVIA
Protocol: Western Blots. To assess the level of Aβ42 in the cell culture medium, Aβ42 peptides were collected from the entire volume of the cell culture medium and total cell lysates and mixed with protein sample buffer (final 0.1 M Tris-HCl, pH6.8, 10% glycerol, 2% SDS, 1% […], and 0.01% bromophenol blue) for Western blot analysis. The samples of cell mixture were analyzed by SDS-PAGE gel electrophoresis and transferred to a PVDF membrane (Millipore). After blocking with blocking buffer containing 5% w/v nonfat dry milk in PBST (1× phosphate-buffered saline and 0.1% Tween 20) at room temperature for 1 h, the membrane was incubated with a primary antibody diluted in the blocking buffer at 4° C. overnight. After hybridization with primary antibody, the membrane was washed three times with PBST before the addition of an HRP-conjugated secondary antibody against the primary antibody. The membrane was then washed three times with PBST before immunoreactive bands were detected by chemiluminescence (PerkinElmer) or Ponceau S staining (Bersting Technology).

Row | Molecule | rescue effect of LPS against Aβ42 neuronal toxicity in the presence of inhibitor (SH-SY5Y cells) | LPS-induced degradation of Aβ42 in the presence of inhibitor (Aβ42) | Aβ42 degradation in SH-SY5Y cells co-treated with the agent (Aβ42)
1 | Cn1cnc(=N)c2[nH]cnc21 [3MA, methyladenine] | increasing the cell death | decreasing the degradation of Aβ42 | –
2 | CO/C1=C\C(C)=C\[C@@H](C)[C@@H](O)[C@@H](C)C/C(C)=C/C=C/[C@H](OC)[C@@H]([C@@H](C)[C@@H](O)[C@H](C)[C@@]2(O)C[C@@H](O)[C@H](C)[C@@H](C(C)C)O2)OC1=O [BA, bafilomycin A1] | increasing the cell death | decreasing the degradation of Aβ42 | –
3 | CCCCCCCCCCC[C@@H](O)CC(=O)N[C@H]1[C@H](OC[C@H]2O[C@H](OP(=O)(O)O)[C@H](NC(=O)C[C@H](O)CCCCCCCCCCC)[C@@H](OC(=O)C[C@H](O)CCCCCCCCCCC)[C@@H]2O)O[C@H](CO)[C@@H](OP(=O)(O)O)[C@@H]1OC(=O)C[C@H](O)CCCCCCCCCCC [PIX, 2-deoxy-6-O-(2-deoxy-3-O-[(3R)-3-hydroxytetradecanoyl]-2-{[(3R)-3-hydroxytetradecanoyl]amino}-4-O-phosphono-β-D-glucopyranosyl)-3-O-[(3R)-3-hydroxytetradecanoyl]-2-{[(3R)-3-hydroxytetradecanoyl]amino}-1-O-phosphono-α-D-glucopyranose] | – | – | able to cause Aβ42 degradation
4 | CCCCCCCCCCC[C@@H](O)CC(=O)N[C@H]1[C@H](OC[C@H]2OC(O)[C@H](NC(=O)C[C@H](O)CCCCCCCCCCC)[C@@H](OC(=O)C[C@H](O)CCCCCCCCCCC)[C@@H]2O)O[C@H](CO)[C@@H](OP(=O)(O)O)[C@@H]1OC(=O)C[C@H](O)CCCCCCCCCCC (stereo partly drawn) [PXI, 2-deoxy-6-O-(2-deoxy-3-O-[(3R)-3-hydroxytetradecanoyl]-2-{[(3R)-3-hydroxytetradecanoyl]amino}-4-O-phosphono-β-D-glucopyranosyl)-3-O-[(3R)-3-hydroxytetradecanoyl]-2-{[(3R)-3-hydroxytetradecanoyl]amino}-D-glucopyranose] | – | – | able to cause Aβ42 degradation
5 | CN(C)CCCN1c2ccccc2Sc2ccc(Cl)cc21 [chlorpromazine] | – | suppressed | –
6 | O=C(N/N=C/c1ccc(O)c(O)c1)c1cc2ccccc2cc1O [dynasore] | – | suppressed | –
7 | Monophosphoryl lipid A [MPL] | – | – | able to cause Aβ42 degradation
8 | colistin | abolished | – | –
9 | methyl-β-cyclodextrin | – | suppressed | –
